Source: patent US5912259A, “Method for treating and preventing neurodegenerative disorders by administering a thiazolidinone” (Warner-Lambert Company, priority 1998, dated 1999)

How the values were obtained:
[1] = tested on: nitric oxide synthase, mixed cortical cultures; test: Nitric oxide synthase activity / NO production in mixed cortical cultures; assay type: cell-based, fetal Sprague-Dawley rat
Method: BV-2 microglia were grown in 6-well tissue culture plates in DMEM/F12 media supplemented with 10% fetal calf serum. Prior to activation, cells were given fresh media containing various amounts of thiazolidinone. One hour after drug treatment, microglia were activated with lipopolysaccharide (LPS, 4 μg/mL) and placed in an incubator at 37° C. in an atmosphere containing 5% CO2. After 16 hours, cultures were evaluated for inducible nitric oxide synthase (iNOS) activity and expression. iNOS activity was determined using the Griess reaction. Cell-free culture media was mixed with an equal volume of Griess reagent (one volume of 1.0% sulfanilamide in 5% phosphoric acid mixed with one volume of 0.1% naphthylenediamine dihydrochloride in water) and incubated for 5 minutes at room temperature. Absorbance was measured at 560 nm and the concentration within a sample was determined using sodium nitrite as standard. iNOS expression was evaluated by extracting cellular protein and performing Western blot analysis using a monoclonal antibody specific for iNOS.
Experiments using mixed cortical cultures were performed as described above. […]
Cerebral ischemia can be modeled in vitro by lowering oxygen and glucose in the media of cortical neurons. […] Cultures were read every 2 to 3 days thereafter by half volume (100 μL) replacement with DME/F12 (10% horse serum).

[2] = tested on: cortical neurons; test: Hypoxia/hypoglycemia-induced death of cortical neurons (LDH); assay type: cell-based, fetal Sprague-Dawley rat
Source text: Cerebral ischemia can be modeled in vitro by lowering oxygen and glucose in the media of cortical neurons. For this study, cortical neurons were isolated from fetal Sprague-Dawley rat brains on Day E18. Cortical hemispheres were sectioned, dissociated, and triturated in Hank's Balanced Salt Solution (HBSS) containing 0.1% trypsin. Cell concentration was adjusted to 620,000 cells/mL by the addition of Dulbecoo's Modified Eagles Medium (DME) and Ham's Nutrient mixture F-12 (F12) 1:1 supplemented with heat-inactivated 10% horse serum and 6% fetal calf serum. A 100 μL aliquot of cell suspension was pipetted into each individual well of a 96-well polyethylenimine-coated culture plate. After 4 days in an incubator at 37° C. in an atmosphere of 8% CO2,100 μL medium was drawn off from each well and replaced with 100 μL of DME/F12 with 10% horse serum to which 30 μg/mL 5-fluoro-2-deoxyuridine and 70 μg/mL uridine were added to prevent further division of the glial cells. Cultures were read every 2 to 3 days thereafter by half volume (100 μL) replacement with DME/F12 (10% horse serum).
Cells were exposed to an hypoxic/hypoglycemic environment (91% N2 /[…] /1% O2, 1 mM glucose, 37° C.) for varying times in 50 μL HBSS. Cultures were then returned to the normoxic incubator (21% O2 /8% CO2,25 mM glucose) and quantitative assessment of cell death made 24 hours later by measurement of the intracellular enzyme lactate dehydrogenase (LDH). Cells were exposed for 1 hour to the thiazolidinone or other drugs prior to the induction of hypoxia/hypoglycemia.

Compound: CC(C)(C)c1cc(/C=C2\SC(N)=NC2=O)cc(C(C)(C)C)c1O [CI-1004, (Z)-5-[[3,5-bis(1,1-dimethylethyl)-4-hydroxyphenyl]methylene]-2-imino-4-thiazolidinone methanesulfonate]
- increase in nitric oxide synthase activity on LPS activation ([1]; 10 μM, LPS-activated): prevented the increase in nitric oxide synthase activity
- basal NO production ([1]; non-LPS activated cultures): significant decrease in basal NO production
- duration of hypoxia/hypoglycemia before loss of viability ([2]; 1 μM): no effect
- duration of hypoxia/hypoglycemia before loss of viability ([2]; 10 μM): significantly increased the duration of hypoxia/hypoglycemia before the cells lost viability
- neuronal death after hypoxia/hypoglycemia ([2]; 10 μM, 4 hours of exposure, control approximately 50% killed): no neuronal death
